Publication PMC11952368 (bioRxiv, 2025)

Columns and labels:
[1] = body and spleen weight / systemic toxicity, combination with Dox; format: in vivo, BALB/c mice; details: Dox 5 mg/kg i.p. every 72 hr; n=4 mice per group
[2] = system: mammary tumor; details: ref [87]; cited from earlier work

Compound | body and spleen weight [1] | tumor ECM normalization and chemotherapy response [2]
COc1cccc2c1C(=O)c1c(O)c3c(c(O)c1C2=O)C[C@@](O)(C(=O)CO)C[C@@H]3O[C@H]1C[C@H](N)[C@H](O)[C@H](C)O1 [Dox, doxorubicin] | loss of body and spleen weight | 
Cc1ccc(=O)n(-c2ccccc2)c1 [Pirfenidone] |  | normalizes the tumor ECM for enhanced chemotherapy response
